Molecular target: T1, PlaR (YiaJ) (Escherichia coli, UniProt P37671)
T1 sequence (P37671 1-282): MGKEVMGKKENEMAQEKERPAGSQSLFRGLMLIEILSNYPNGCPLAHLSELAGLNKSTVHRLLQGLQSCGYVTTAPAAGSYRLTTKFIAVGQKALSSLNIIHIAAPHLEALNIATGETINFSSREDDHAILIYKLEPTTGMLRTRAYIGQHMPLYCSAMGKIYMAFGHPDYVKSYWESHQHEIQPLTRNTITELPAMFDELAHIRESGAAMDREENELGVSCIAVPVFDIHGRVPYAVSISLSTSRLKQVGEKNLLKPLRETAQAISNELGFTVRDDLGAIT
Assay: gel shift assay, dissociation of PlaR from yiaK promoter DNA
Format: binding
Details: 2.5 uM PlaR, yiaK promoter probe, 1-25 mM compound, 37 °C, pH 7.8, 150 mM NaCl, 3 mM Mg acetate; effector (inducer)

Structure (SMILES): O=C1O[C@H]([C@@H](O)CO)C(O)=C1O [L-ascorbate]
- gel shift assay, dissociation of PlaR from yiaK promoter DNA: Both the metabolites induced a dose-dependent dissociation in vitro of PlaR from the PlaR-yiaK promoter

Structure (SMILES): O=C(O)[C@H]1O[C@H](O)[C@H](O)[C@@H](O)[C@H]1O [α-D-galacturonate]
- gel shift assay, dissociation of PlaR from yiaK promoter DNA: Both the metabolites induced a dose-dependent dissociation in vitro of PlaR from the PlaR-yiaK promoter
